Results on four compounds are retold here after patent US9238033B2, “Pharmaceutical composition containing KW-6002 and fluoxetine or paroxentine” (Kyowa Hakko Kirin Co., Ltd., priority 2003, dated 2016).

One experiment relates to ddY male mice. Briefly: Forced swimming method in mice (animal model of depression). Format: in vivo. The note with it: for Duration of immobility (sec) Mean value ± Standard error: last 4 min of 6 min test, Not Significant (Dunnett test); for Rate of change of duration of immobility to solvent control group (%): solvent control = 100%. As for the experimental part:
The test was carried out with reference to the method of Porsolt et al., [Arch. Int. Pharmacodyn. Ther., 229, 327-336 (1977)], which is an animal model of depression.
Experiment was conducted using 10 ddY male mice (weighing 20 to 35 g, Nihon SLC Co., Ltd) per one group.
An acrylic transparent cylinder having a diameter of 10 cm and a height of 25 cm was filled with water having a temperature of about 24° C. Height from the bottom of the cylinder to the surface of the water was adjusted to be about 9 cm.
The mice were forced to swim individually for a period of 6 minutes, the total duration of immobility during the last 4 minutes of 6 minutes test was measured (significance test: Dunnett test).
The antidepressant drug and Compound (I) were suspended in distilled water for injection (manufactured by Otsuka Pharmaceutical Co., Ltd.) containing 0.5% MC (methyl cellulose), respectively, for use in the test. Time point of administration of the antidepressant drug was predetermined such that the peak of onset of activity by the antidepressant drug overlaps with the peak of onset of activity by Compound (I). According to the predetermined time, the suspension containing the antidepressant drug was orally administered to a group administered the antidepressant drug alone or a group administered the antidepressant drug and Compound (I) in combination (0.1 mL per 10 g of the mouse body weight). Further, the suspension containing Compound (I) was orally administered to the group administered the antidepressant drug and Compound (I) in combination, 1 hour before the test (0.1 mL per 10 g of the mouse body weight). A solution without containing a test compound [distilled water for injection (manufactured by Otsuka Pharmaceutical Co., Ltd.) containing 0.5% MC] and the suspension containing Compound (I) were orally administered to a solvent control group and to a group administered Compound (I) alone, 1 hour before the test, respectively (0.1 mL per 10 g of the mouse body weight).
(§1) Effect obtained by combining Compound (I) and the antidepressant drug was evaluated according to the following index.
The duration of Immobility in the solvent control group was assumed to be 100%, and each rate of change (%) of the duration of, immobility in the above administration group to the duration of immobility in the solvent control group was calculated, and was compared. The duration of immobility in each administration group, and the rate of change (%) of the duration of immobility are shown in Table 1.

In the next experiment the test system is ICR male mice. As to the kind of experiment: Mouse tail suspension method (animal model of depression). The note with it: for Duration of immobility (sec) Mean value ± Standard error: last 4 min of 6 min test, Not Significant (Student's t test); for Rate of change of duration of immobility to solvent control group (%): solvent control = 100%. Format: in vivo. The procedure: The test was carried out with reference to the method of Steru et al., [Psychopharmacol., 85, 367-370 (1985)], which is an animal model of depression.
Experiment was conducted using 10 ICR male mice (weighing 20 to 35 g, Nihon SLC Co., Ltd) per one group.
An acrylic or metallic bat was fixed horizontally such that height of about 60 cm from the floor face is provided.
The mouse was suspended at a site of about 2 cm from the tip of the tail, from the bar for a period of 6 minutes. Duration of immobility during the last 4 minutes of 6 minutes test was measured (significance test: Student's t test). For fixing the mouse, an adhesive tape was used.
The antidepressant drug and Compound (I) were suspended in distilled water for injection (manufactured by Otsuka Pharmaceutical Co., Ltd.) containing 0.5% MC (methyl cellulose), respectively, for use in the test. Time point of administration of the antidepressant drug was predetermined such that the peak of onset of activity by the antidepressant drug overlaps with the peak of onset of activity by Compound (I). According to the predetermined time, the suspension containing the antidepressant drug was orally administered to a group administered the antidepressant drug alone or a group administered the antidepressant drug and Compound (I) in combination (0.1 mL per 10 g of the mouse body weight). Further, the suspension containing Compound (I) was orally administered to the group administered the antidepressant drug and Compound (I) in combination, 1 hour before the test (0.1 mL per […] of the mouse body weight). A solution without containing a test compound [distilled water for injection (manufactured by Otsuka Pharmaceutical Co., Ltd.) containing 0.5% MC] and the suspension containing Compound (I) were orally administered to a solvent control group and to a group administered Compound (I) alone, 1 hour before the test, respectively (0.1 mL per 10 g of the mouse body weight).
as §1
The duration of Immobility in the solvent control group was assumed to be 100%, and each rate of change (%) of the duration of immobility in the above administration group to the duration of immobility in the solvent control group was calculated, and was compared. The duration of immobility in each administration group, and the rate of change (%) of the duration of immobility are shown in Table 2 and Table 3.

The mark [1] stands for this setting: Compound (I) 0.08 mg/kg orally 1 hour before test.
The mark [2] stands for this setting: Table 2, Compound (I) 0.04 mg/kg orally 1 hour before test.
The mark [3] stands for this setting: Table 3, Compound (I) 0.04 mg/kg orally 1 hour before test.
[4] abbreviates: Table 3, fluoxetine hydrochloride 10.00 mg/kg orally.
Setting [5] is: Table 2, paroxetine hydrochloride hydrate 2.50 mg/kg orally.
The mark [6] stands for this setting: Venlafaxine hydrochloride 5.00 mg/kg orally.

Structures can show the parent of a compound that is named as a salt.

In the case of `CCn1c(=O)c2c(nc(/C=C/c3ccc(OC)c(OC)c3)n2C)n(CC)c1=O` [Compound (I), (E)-8-(3,4-dimethoxystyryl)-1,3-diethyl-7-methyl-3,7-dihydro-1H-purine-2,6-dione], the figures for the “Duration of immobility (sec) Mean value ± Standard error” value in the experiment on ddY male mice (setting [1]), with ICR male mice (setting [2]) and with ICR male mice (setting [3]) were 155.6 ± 13.3 s, 70.1 ± 19.1 s and 87.9 ± 14.9 s, respectively. The “Rate of change of duration of immobility to solvent control group (%)” value (“Rate of change of duration of immobility … (%)” below) is given as −21% with ddY male mice (setting [1]), −14% in the experiment on ICR male mice (setting [2]) and −26% with ICR male mice (setting [3]).
Regarding `CNCCC(Oc1ccc(C(F)(F)F)cc1)c1ccccc1` (stereo not drawn) [Fluoxetine hydrochloride], in the experiment on ICR male mice (setting [4]), the “Duration of immobility (sec) Mean value ± Standard error” value stood at 85.7 ± 18.9 s and the “Rate of change of duration of immobility … (%)” value is −16%.
In the case of `Fc1ccc([C@@H]2CCNC[C@H]2COc2ccc3c(c2)OCO3)cc1` [Paroxetine hydrochloride hydrate], in the experiment with ICR male mice (setting [5]), the “Duration of immobility (sec) Mean value ± Standard error” value was found to be 79.6 ± 16.6 s and the “Rate of change of duration of immobility … (%)” value is recorded as −2%.
With `COc1ccc(C(CN(C)C)C2(O)CCCCC2)cc1` (stereo not drawn) [Venlafaxine hydrochloride], in the experiment with ddY male mice (setting [6]), the “Duration of immobility (sec) Mean value ± Standard error” value turned out to be 173.1 ± 20.7 s and the “Rate of change of duration of immobility … (%)” value is listed as −12%.
